Measured values published in ChEMBL document CHEMBL5352447, “Development of [1,2]oxazoloisoindoles tubulin polymerization inhibitors: Further chemical modifications and potential therapeutic effects against lymphomas” (Eur J Med Chem, 2022).

System: SK-MEL-5
Test: Antiproliferative activity against human SK-MEL-5 cells assessed as cell growth inhibition incubated for 72 hrs by MTT assay
Format: functional
Conditions: not given

**Q.** For COc1ccc(Cn2cc3c(c2-c2cc(OC)c(OC)c(OC)c2)CCc2c(CN4CCOCC4)noc2-3)cc1, which GI50 is on record?
**A.** 1860 nM

System: IGROV-1
Test: Antiproliferative activity against human IGROV-1 cells assessed as cell growth inhibition incubated for 72 hrs by MTT assay
Format: functional
Conditions: not given

**Q.** For COc1ccc(Cn2cc3c(c2-c2cc(OC)c(OC)c(OC)c2)CCc2c(CN4CCOCC4)noc2-3)cc1, which GI50 is on record?
**A.** 810 nM

System: OVCAR-4
Test: Antiproliferative activity against human OVCAR-4 cells assessed as cell growth inhibition incubated for 72 hrs by MTT assay
Format: functional
Conditions: not given

**Q.** For COc1ccc(Cn2cc3c(c2-c2cc(OC)c(OC)c(OC)c2)CCc2c(CN4CCOCC4)noc2-3)cc1, which GI50 is on record?
**A.** 6840 nM

System: OVCAR-8
Test: Antiproliferative activity against human OVCAR-8 cells assessed as cell growth inhibition incubated for 72 hrs by MTT assay
Format: functional
Conditions: not given

**Q.** For COc1ccc(Cn2cc3c(c2-c2cc(OC)c(OC)c(OC)c2)CCc2c(CN4CCOCC4)noc2-3)cc1, which GI50 is on record?
**A.** 1920 nM

System: NCI/ADR-RES
Test: Antiproliferative activity against human NCI-ADR-RES cells assessed as cell growth inhibition incubated for 72 hrs by MTT assay
Format: functional
Conditions: not given

**Q.** For COc1ccc(Cn2cc3c(c2-c2cc(OC)c(OC)c(OC)c2)CCc2c(CN4CCOCC4)noc2-3)cc1, which GI50 is on record?
**A.** 430 nM

System: SK-OV-3
Test: Antiproliferative activity against human SK-OV-3 cells assessed as cell growth inhibition incubated for 72 hrs by MTT assay
Format: functional
Conditions: not given

**Q.** Which GI50 does the source give for COc1ccc(Cn2cc3c(c2-c2cc(OC)c(OC)c(OC)c2)CCc2c(CN4CCOCC4)noc2-3)cc1 here?
**A.** 970 nM

System: A498
Test: Antiproliferative activity against human A498 cells assessed as cell growth inhibition incubated for 72 hrs by MTT assay
Format: functional
Conditions: not given

**Q.** For COc1ccc(Cn2cc3c(c2-c2cc(OC)c(OC)c(OC)c2)CCc2c(CN4CCOCC4)noc2-3)cc1, which GI50 is on record?
**A.** 320 nM

System: ACHN
Test: Antiproliferative activity against human ACHN cells assessed as cell growth inhibition incubated for 72 hrs by MTT assay
Format: functional
Conditions: not given

**Q.** For COc1ccc(Cn2cc3c(c2-c2cc(OC)c(OC)c(OC)c2)CCc2c(CN4CCOCC4)noc2-3)cc1, which GI50 is on record?
**A.** 630 nM

System: RXF 393
Test: Antiproliferative activity against human RXF 393 cells assessed as cell growth inhibition incubated for 72 hrs by MTT assay
Format: functional
Conditions: not given

**Q.** For COc1ccc(Cn2cc3c(c2-c2cc(OC)c(OC)c(OC)c2)CCc2c(CN4CCOCC4)noc2-3)cc1, which GI50 is on record?
**A.** 290 nM

System: SN12C
Test: Antiproliferative activity against human SN12C cells assessed as cell growth inhibition incubated for 72 hrs by MTT assay
Format: functional
Conditions: not given

**Q.** Which GI50 does the source give for COc1ccc(Cn2cc3c(c2-c2cc(OC)c(OC)c(OC)c2)CCc2c(CN4CCOCC4)noc2-3)cc1 here?
**A.** 3810 nM

System: TK-10
Test: Antiproliferative activity against human TK-10 cells assessed as cell growth inhibition incubated for 72 hrs by MTT assay
Format: functional
Conditions: not given

**Q.** With COc1ccc(Cn2cc3c(c2-c2cc(OC)c(OC)c(OC)c2)CCc2c(CN4CCOCC4)noc2-3)cc1 as the compound, how does the GI50 read?
**A.** > 100000 nM

System: UO-31
Test: Antiproliferative activity against human UO-31 cells assessed as cell growth inhibition incubated for 72 hrs by MTT assay
Format: functional
Conditions: not given

**Q.** With COc1ccc(Cn2cc3c(c2-c2cc(OC)c(OC)c(OC)c2)CCc2c(CN4CCOCC4)noc2-3)cc1 as the compound, how does the GI50 read?
**A.** 760 nM

System: PC-3
Test: Antiproliferative activity against human PC-3 cells assessed as cell growth inhibition incubated for 72 hrs by MTT assay
Format: functional
Conditions: not given

**Q.** For COc1ccc(Cn2cc3c(c2-c2cc(OC)c(OC)c(OC)c2)CCc2c(CN4CCOCC4)noc2-3)cc1, which GI50 is on record?
**A.** 650 nM

System: DU-145
Test: Antiproliferative activity against human DU-145 cells assessed as cell growth inhibition incubated for 72 hrs by MTT assay
Format: functional
Conditions: not given

**Q.** With COc1ccc(Cn2cc3c(c2-c2cc(OC)c(OC)c(OC)c2)CCc2c(CN4CCOCC4)noc2-3)cc1 as the compound, how does the GI50 read?
**A.** 1990 nM

System: MCF7
Test: Antiproliferative activity against human MCF7 cells assessed as cell growth inhibition incubated for 72 hrs by MTT assay
Format: functional
Conditions: not given

**Q.** Which GI50 does the source give for COc1ccc(Cn2cc3c(c2-c2cc(OC)c(OC)c(OC)c2)CCc2c(CN4CCOCC4)noc2-3)cc1 here?
**A.** 360 nM

System: MDA-MB-231
Test: Antiproliferative activity against human MDA-MB-231 cells assessed as cell growth inhibition incubated for 72 hrs by MTT assay
Format: functional
Conditions: not given

**Q.** With COc1ccc(Cn2cc3c(c2-c2cc(OC)c(OC)c(OC)c2)CCc2c(CN4CCOCC4)noc2-3)cc1 as the compound, how does the GI50 read?
**A.** 2250 nM

System: BT-549
Test: Antiproliferative activity against human BT-549 cells assessed as cell growth inhibition incubated for 72 hrs by MTT assay
Format: functional
Conditions: not given

**Q.** Which GI50 does the source give for COc1ccc(Cn2cc3c(c2-c2cc(OC)c(OC)c(OC)c2)CCc2c(CN4CCOCC4)noc2-3)cc1 here?
**A.** 1340 nM

System: T47D
Test: Antiproliferative activity against human T47D cells assessed as cell growth inhibition incubated for 72 hrs by MTT assay
Format: functional
Conditions: not given

**Q.** With COc1ccc(Cn2cc3c(c2-c2cc(OC)c(OC)c(OC)c2)CCc2c(CN4CCOCC4)noc2-3)cc1 as the compound, how does the GI50 read?
**A.** > 100000 nM

System: VL51
Test: Antiproliferative activity against human VL51 cells assessed as proliferating cells at 1 uM incubated for 72 hrs by MTT assay relative to control
Format: functional
Conditions: not given

**Q.** With COc1ccc(Cn2cc3c(c2-c2cc(OC)c(OC)c(OC)c2)CCc2c(CN4CCOCC4)noc2-3)cc1 as the compound, how does the Activity read?
**A.** 53.3%

System: SU-DHL10
Test: Antiproliferative activity against human SU-DHL-10 cells assessed as proliferating cells at 1 uM incubated for 72 hrs by MTT assay relative to control
Format: functional
Conditions: not given

**Q.** With COc1ccc(Cn2cc3c(c2-c2cc(OC)c(OC)c(OC)c2)CCc2c(CN4CCOCC4)noc2-3)cc1 as the compound, how does the Activity read?
**A.** 0.7%

System: VL51
Test: Antiproliferative activity against human VL51 cells assessed as inhibition of cell proliferation incubated for 72 hrs by MTT assay
Format: functional, cell-based
Conditions: VL51, 72 h

**Q.** Which IC50 does the source give for COc1ccc(Cn2cc3c(c2-c2cc(OC)c(OC)c(OC)c2)CCc2c(CN4CCOCC4)noc2-3)cc1 here?
**A.** 200 nM

System: not listed separately
Test: Antiproliferative activity against human MINO cells assessed as inhibition of cell proliferation incubated for 72 hrs by MTT assay
Format: functional, cell-based
Conditions: not given

**Q.** With COc1ccc(Cn2cc3c(c2-c2cc(OC)c(OC)c(OC)c2)CCc2c(CN4CCOCC4)noc2-3)cc1 as the compound, how does the IC50 read?
**A.** 500 nM

System: not listed separately
Test: Antiproliferative activity against human HBL1 cells assessed as inhibition of cell proliferation incubated for 72 hrs by MTT assay
Format: functional, cell-based
Conditions: HBL1, 72 h

**Q.** With COc1ccc(Cn2cc3c(c2-c2cc(OC)c(OC)c(OC)c2)CCc2c(CN4CCOCC4)noc2-3)cc1 as the compound, how does the IC50 read?
**A.** 500 nM

System: SU-DHL10
Test: Antiproliferative activity against human SU-DHL-10 cells assessed as inhibition of cell proliferation incubated for 72 hrs by MTT assay
Format: functional, cell-based
Conditions: SU-DHL10, 72 h

**Q.** For COc1ccc(Cn2cc3c(c2-c2cc(OC)c(OC)c(OC)c2)CCc2c(CN4CCOCC4)noc2-3)cc1, which IC50 is on record?
**A.** 500 nM
